Experimental data published in PMC6858497 (The Journal of physiology, 2019).
“And” between values parts separate entries of the source, which are not always exact repeats. Identical values can stand only once.

What was measured:
[1] = system: NMDAR-EPSCs in hippocampal CA1 pyramidal cells; test: Whole-cell patch-clamp of NMDAR-EPSCs in acute hippocampal slices; type: cell-based, mouse; settings: for NMDAR-EPSC peak amplitude, % of baseline: 10 μM, +40 mV, P21–28 slices; for effect on EPSC decay time: treatment versus baseline, paired t test, 10 μM (spermine 100 μM)
GluN1–1a/2BC1/2DC2 = GluN1–1a/2BC1/2DC2 (Rattus norvegicus, UniProt P35439+Q00959+Q00960+Q62645, A876H/F846L/G856D/H848F/K857R/M851T/M860L/Q845K/R869K/V861L/V866F); test: Two-electrode voltage-clamp recordings, Xenopus oocytes; type: cell-based; settings: for nH (Hill coefficient): inhibition; for Relative Imin: fitted minimal response relative to control
GluN1–1a/2B = GluN1–1a/2B (Rattus norvegicus, UniProt P35439+Q00960); test: as above; type: cell-based; settings: for nH (Hill coefficient): inhibition
Sequence of GluN1–1a/2B (Q00960 27-1482, other chains not shown): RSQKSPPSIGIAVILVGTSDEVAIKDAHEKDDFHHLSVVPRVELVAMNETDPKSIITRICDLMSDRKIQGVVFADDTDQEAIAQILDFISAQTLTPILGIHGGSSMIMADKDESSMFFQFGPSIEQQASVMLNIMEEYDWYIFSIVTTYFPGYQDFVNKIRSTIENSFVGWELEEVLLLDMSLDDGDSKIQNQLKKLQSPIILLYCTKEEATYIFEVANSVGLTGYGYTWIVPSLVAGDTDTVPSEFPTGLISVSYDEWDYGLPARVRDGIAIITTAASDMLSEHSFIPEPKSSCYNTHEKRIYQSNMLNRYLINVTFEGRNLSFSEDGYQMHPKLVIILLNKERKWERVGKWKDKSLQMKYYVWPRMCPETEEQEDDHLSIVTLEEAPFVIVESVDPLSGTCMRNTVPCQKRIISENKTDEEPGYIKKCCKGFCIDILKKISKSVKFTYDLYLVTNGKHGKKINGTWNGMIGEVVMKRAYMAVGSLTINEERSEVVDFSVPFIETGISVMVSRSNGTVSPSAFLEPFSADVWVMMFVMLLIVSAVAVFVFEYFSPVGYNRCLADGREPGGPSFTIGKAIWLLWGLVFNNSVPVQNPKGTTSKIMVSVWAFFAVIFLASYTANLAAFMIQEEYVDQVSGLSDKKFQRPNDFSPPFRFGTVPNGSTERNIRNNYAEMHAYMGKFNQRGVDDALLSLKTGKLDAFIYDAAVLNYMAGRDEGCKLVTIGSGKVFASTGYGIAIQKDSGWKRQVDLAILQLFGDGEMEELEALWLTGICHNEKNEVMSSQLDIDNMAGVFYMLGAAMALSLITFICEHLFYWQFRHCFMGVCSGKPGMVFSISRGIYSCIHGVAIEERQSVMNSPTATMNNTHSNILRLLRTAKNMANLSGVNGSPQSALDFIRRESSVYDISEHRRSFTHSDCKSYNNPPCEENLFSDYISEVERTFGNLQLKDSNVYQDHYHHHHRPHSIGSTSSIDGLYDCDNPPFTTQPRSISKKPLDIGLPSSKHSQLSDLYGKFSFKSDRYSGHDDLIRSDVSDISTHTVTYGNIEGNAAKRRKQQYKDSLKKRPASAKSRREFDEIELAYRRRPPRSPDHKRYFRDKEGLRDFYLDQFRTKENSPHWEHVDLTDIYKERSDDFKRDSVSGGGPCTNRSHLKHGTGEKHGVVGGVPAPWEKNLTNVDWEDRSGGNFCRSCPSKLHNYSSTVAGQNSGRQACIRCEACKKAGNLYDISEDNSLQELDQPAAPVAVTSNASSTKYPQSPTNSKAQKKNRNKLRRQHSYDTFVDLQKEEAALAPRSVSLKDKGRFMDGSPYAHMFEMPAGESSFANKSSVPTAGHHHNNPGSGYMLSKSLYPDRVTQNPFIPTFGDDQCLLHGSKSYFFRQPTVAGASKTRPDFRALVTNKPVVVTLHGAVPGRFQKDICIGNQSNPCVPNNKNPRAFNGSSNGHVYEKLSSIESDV

[2] = system: NMDAR-EPSCs in hippocampal interneurons (CA1 s.r./s.l.m.); test: Whole-cell patch-clamp of NMDAR-EPSCs in acute hippocampal slices; type: cell-based, mouse; settings: for NMDAR-EPSC peak amplitude, % of baseline: 10 μM, +40 mV, P21–28 slices
GluN1–1a/2D = GluN1–1a/2D (Rattus norvegicus, UniProt P35439+Q62645); test: Two-electrode voltage-clamp recordings, Xenopus oocytes; type: cell-based; settings: for nH (Hill coefficient): inhibition
Sequence of GluN1–1a/2D (Q62645 28-1323, other chains not shown): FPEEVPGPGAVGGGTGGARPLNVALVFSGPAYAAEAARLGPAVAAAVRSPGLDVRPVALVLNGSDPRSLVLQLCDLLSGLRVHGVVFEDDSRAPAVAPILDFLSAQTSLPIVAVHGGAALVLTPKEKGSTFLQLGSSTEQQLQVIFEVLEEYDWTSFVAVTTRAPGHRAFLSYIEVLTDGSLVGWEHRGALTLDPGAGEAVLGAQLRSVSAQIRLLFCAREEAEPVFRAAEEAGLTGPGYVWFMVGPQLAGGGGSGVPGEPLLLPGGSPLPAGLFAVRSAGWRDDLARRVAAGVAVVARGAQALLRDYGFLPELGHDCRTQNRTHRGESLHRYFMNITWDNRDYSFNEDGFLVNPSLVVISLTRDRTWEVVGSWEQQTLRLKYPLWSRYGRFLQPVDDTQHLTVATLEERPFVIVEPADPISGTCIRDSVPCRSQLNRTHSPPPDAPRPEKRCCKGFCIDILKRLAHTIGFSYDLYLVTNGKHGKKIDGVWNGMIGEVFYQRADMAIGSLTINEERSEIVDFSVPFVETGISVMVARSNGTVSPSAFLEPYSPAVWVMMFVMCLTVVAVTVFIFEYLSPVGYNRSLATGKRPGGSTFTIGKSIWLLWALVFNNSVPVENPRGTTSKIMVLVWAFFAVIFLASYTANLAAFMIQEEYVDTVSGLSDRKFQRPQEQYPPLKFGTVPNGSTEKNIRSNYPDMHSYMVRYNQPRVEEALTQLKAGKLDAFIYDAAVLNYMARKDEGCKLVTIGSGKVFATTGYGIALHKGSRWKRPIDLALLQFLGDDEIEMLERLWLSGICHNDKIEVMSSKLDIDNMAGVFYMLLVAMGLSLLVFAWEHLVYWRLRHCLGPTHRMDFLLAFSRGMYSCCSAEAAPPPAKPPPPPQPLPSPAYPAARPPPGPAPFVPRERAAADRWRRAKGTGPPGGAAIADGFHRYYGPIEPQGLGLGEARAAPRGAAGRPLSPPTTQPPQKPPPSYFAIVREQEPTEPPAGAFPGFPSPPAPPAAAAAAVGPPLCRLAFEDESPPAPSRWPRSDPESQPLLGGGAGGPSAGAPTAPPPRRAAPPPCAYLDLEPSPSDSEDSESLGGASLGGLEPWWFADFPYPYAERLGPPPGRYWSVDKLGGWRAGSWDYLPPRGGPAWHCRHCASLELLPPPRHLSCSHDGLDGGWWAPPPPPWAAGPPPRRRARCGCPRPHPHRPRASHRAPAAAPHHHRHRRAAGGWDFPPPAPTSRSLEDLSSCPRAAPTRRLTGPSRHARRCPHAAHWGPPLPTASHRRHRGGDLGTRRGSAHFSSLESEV

[3] = fitted minimal response relative to control, isoform 1a
[4] = isoform 1a, 300 μM glutamate plus 100 μM glycine
[5] = Mg2+ block, holding potential −40 mV
[6] = Mg2+ block, holding potential −60 mV
[7] = Mg2+ block, holding potential −80 mV
[8] = Mg2+ block, holding potential −100 mV
[9] = Woodhull model, current-voltage relationship with 0.1 mM Mg2+
[10] = IC50, channel block, −20 mV, + 1 mM Mg2+
[11] = IC50, channel block, −20 mV, control (absence of Mg2+)
[12] = IC50, channel block, −40 mV, + 1 mM Mg2+
[13] = IC50, channel block, −40 mV, control (absence of Mg2+)
[14] = IC50, channel block, −60 mV, + 1 mM Mg2+
[15] = IC50, channel block, −60 mV, control (absence of Mg2+)
[16] = channel block, −20 mV, + 1 mM Mg2+
[17] = channel block, −20 mV, control (absence of Mg2+)
[18] = channel block, −40 mV, + 1 mM Mg2+
[19] = channel block, −40 mV, control (absence of Mg2+)
[20] = channel block, −60 mV, + 1 mM Mg2+
[21] = channel block, −60 mV, control (absence of Mg2+)

C[C@@H]([C@@H](O)c1ccc(O)cc1)N1CCC(O)(c2ccccc2)CC1 [CP-101,606]
NMDAR-EPSC peak amplitude, % of baseline [1]: 50 ± 3 % of baseline | effect on EPSC decay time [1]: significantly accelerated | nH (Hill coefficient) (GluN1–1a/2BC1/2DC2; isoform 1a): 1.4 | maximal inhibition (GluN1–1a/2BC1/2DC2; isoform 1a): ~ 65% | nH (Hill coefficient) (GluN1–1a/2B; isoform 1a): 1.4 | maximal inhibition (GluN1–1a/2B; isoform 1a): ~ 95% | NMDAR-EPSC peak amplitude, % of baseline [2]: 30 ± 3 % of baseline | effect on EPSC decay time ([2]; treatment versus baseline, paired t test, 10 μM (spermine 100 μM)): unchanged

Cc1ccc2[nH]c(=O)c(C3=NN(C(=O)CCC(=O)O)C(c4ccc(Br)cc4)C3)c(-c3ccccc3)c2c1 (centres unmarked) [DQP-1105]
Relative Imin (GluN1–1a/2D; [3]): −3 ± 1% | nH (Hill coefficient) (GluN1–1a/2D; isoform 1a): 1.0 | maximal inhibition (GluN1–1a/2D; isoform 1a): ~ 100% | IC50 (GluN1–1a/2D; [4]): 2.2 ± 0.1 µM | Relative Imin (GluN1–1a/2BC1/2DC2; isoform 1a): −8 ± 2 % | nH (Hill coefficient) (GluN1–1a/2BC1/2DC2; isoform 1a): 0.8 | maximal inhibition (GluN1–1a/2BC1/2DC2; isoform 1a): ~ 100% | IC50 (GluN1–1a/2BC1/2DC2; [4]): 13 ± 1 µM | Relative Imin (GluN1–1a/2B; at 30 μM, isoform 1a): 58 ± 2%

Cc1nccn1Cc1cc(-c2ccc(F)c(C(F)F)c2)cnn1.Cl.Cl [EVT-101]
Relative Imin (GluN1–1a/2D; at 3 μM, isoform 1a): 92 ± 2% | Relative Imin (GluN1–1a/2BC1/2DC2; isoform 1a): 37 ± 2 % | nH (Hill coefficient) (GluN1–1a/2BC1/2DC2; isoform 1a): 1.1 | maximal inhibition (GluN1–1a/2BC1/2DC2; isoform 1a): ~ 65% | IC50 (GluN1–1a/2BC1/2DC2; [4]): 0.012 ± 0.001 µM | Relative Imin (GluN1–1a/2B; [3]): 3 ± 1% | nH (Hill coefficient) (GluN1–1a/2B; isoform 1a): 1.0 | maximal inhibition (GluN1–1a/2B; isoform 1a): ~ 95% | IC50 (GluN1–1a/2B; [4]): 0.009 ± 0.001 µM

Cc1ncc(CNC(=O)c2cnc(CNS(=O)(=O)c3ccc(F)c(Cl)c3)cn2)s1 [MPX-004]
NMDAR-EPSC peak amplitude, % of baseline [1]: 45 ± 2 % of baseline | effect on EPSC decay time [1]: significantly slowed | NMDAR-EPSC peak amplitude, % of baseline [2]: 98 ± 5 % of baseline

[Mg+2] [Mg^2+]
IC50 (GluN1–1a/2D; [5]): 937 ± 85.9 µM | nH (GluN1–1a/2D; [5]): 1.0 | IC50 (GluN1–1a/2D; [6]): 254 µM | nH (GluN1–1a/2D; [6]): 1.0 | IC50 (GluN1–1a/2D; [7]): 72.5 ± 1.8 µM | nH (GluN1–1a/2D; [7]): 1.0 | IC50 (GluN1–1a/2D; [8]): 25.1 ± 0.4 µM | nH (GluN1–1a/2D; [8]): 1.0 | δ, fraction of the membrane electric field sensed by the blocking site (GluN1–1a/2D; Woodhull model, 0.1 mM Mg2+): 0.82 | K0.5(0 mV), Mg2+ concentration producing half-maximal block at 0 mV (GluN1–1a/2D; [9]): 11 mM | IC50 (GluN1–1a/2BC1/2DC2; [5]): 518 ± 14.3 µM | nH (GluN1–1a/2BC1/2DC2; [5]): 0.8 | IC50 (GluN1–1a/2BC1/2DC2; [6]): 80 µM and 79.2 µM | nH (GluN1–1a/2BC1/2DC2; [6]): 0.9 | IC50 (GluN1–1a/2BC1/2DC2; [7]): 19.9 ± 0.8 µM | nH (GluN1–1a/2BC1/2DC2; [7]): 0.9 | IC50 (GluN1–1a/2BC1/2DC2; [8]): 6.8 ± 0.5 µM | nH (GluN1–1a/2BC1/2DC2; [8]): 0.9 | δ, fraction of the membrane electric field sensed by the blocking site (GluN1–1a/2BC1/2DC2; Woodhull model, 0.1 mM Mg2+): 0.95 | K0.5(0 mV), Mg2+ concentration producing half-maximal block at 0 mV (GluN1–1a/2BC1/2DC2; [9]): 6.6 mM | IC50 (GluN1–1a/2B; [5]): 161 ± 11.8 µM | nH (GluN1–1a/2B; [5]): 0.9 | IC50 (GluN1–1a/2B; [6]): 26 µM and 25.5 µM | nH (GluN1–1a/2B; [6]): 1.0 | IC50 (GluN1–1a/2B; [7]): 5.5 ± 0.4 µM | nH (GluN1–1a/2B; [7]): 1.0 | IC50 (GluN1–1a/2B; [8]): 1.6 ± 0.3 µM | nH (GluN1–1a/2B; [8]): 0.9 | δ, fraction of the membrane electric field sensed by the blocking site (GluN1–1a/2B; Woodhull model, 0.1 mM Mg2+): 1.08 | K0.5(0 mV), Mg2+ concentration producing half-maximal block at 0 mV (GluN1–1a/2B; [9]): 4.5 mM

COc1ccc2nc(/C=C/c3cccc([N+](=O)[O-])c3)n(-c3ccc(C(=O)O)cc3)c(=O)c2c1 [QNZ-46]
Relative Imin (GluN1–1a/2D; [3]): −3 ± 1% | nH (Hill coefficient) (GluN1–1a/2D; isoform 1a): 1.0 | maximal inhibition (GluN1–1a/2D; isoform 1a): ~ 100% | IC50 (GluN1–1a/2D; [4]): 2.7 ± 0.1 µM | Relative Imin (GluN1–1a/2BC1/2DC2; isoform 1a): 4 ± 1 % | nH (Hill coefficient) (GluN1–1a/2BC1/2DC2; isoform 1a): 1.0 | maximal inhibition (GluN1–1a/2BC1/2DC2; isoform 1a): ~ 100% | IC50 (GluN1–1a/2BC1/2DC2; [4]): 10 ± 1 µM | Relative Imin (GluN1–1a/2B; at 30 μM, isoform 1a): 76 ± 1%

CNC1(c2ccccc2Cl)CCCCC1=O (centres unmarked) [ketamine]
IC50 (GluN1–1a/2D; [10]): 4.5 ± 0.5 µM | IC50 (GluN1–1a/2D; [11]): 3.8 ± 0.2 µM | IC50 (GluN1–1a/2D; [12]): 3.5 ± 0.5 µM | IC50 (GluN1–1a/2D; [13]): 2.4 ± 0.2 µM | IC50 (GluN1–1a/2D; [14]): 2.6 ± 0.4 µM | IC50 (GluN1–1a/2D; [15]): 1.3 ± 0.1 µM | nH (GluN1–1a/2D; [16]): 1.0 | nH (GluN1–1a/2D; [17]): 1.0 | nH (GluN1–1a/2D; [18]): 1.0 | nH (GluN1–1a/2D; [19]): 1.0 | nH (GluN1–1a/2D; [20]): 1.1 | nH (GluN1–1a/2D; [21]): 1.0 | IC50 (GluN1–1a/2B; [10]): 16.3 ± 1.9 µM | IC50 (GluN1–1a/2B; [11]): 4.2 ± 0.7 µM | IC50 (GluN1–1a/2B; [12]): 19.2 ± 2 µM | IC50 (GluN1–1a/2B; [13]): 2.1 ± 0.3 µM | IC50 (GluN1–1a/2B; [14]): 17 ± 2 µM | IC50 (GluN1–1a/2B; [15]): 1 ± 0.1 µM | nH (GluN1–1a/2B; [16]): 1.2 | nH (GluN1–1a/2B; [17]): 1.0 | nH (GluN1–1a/2B; [18]): 1.3 | nH (GluN1–1a/2B; [19]): 1.0 | nH (GluN1–1a/2B; [20]): 1.1 | nH (GluN1–1a/2B; [21]): 1.0

CC12CC3CC(C)(C1)CC(N)(C3)C2 [memantine]
nH (GluN1–1a/2D; [16]): 1.0 | nH (GluN1–1a/2D; [17]): 1.1 | nH (GluN1–1a/2D; [18]): 1.0 | nH (GluN1–1a/2D; [19]): 1.1 | nH (GluN1–1a/2D; [20]): 1.0 | nH (GluN1–1a/2D; [21]): 1.1 | nH (GluN1–1a/2BC1/2DC2; [16]): 1.0 | nH (GluN1–1a/2BC1/2DC2; [17]): 1.1 | nH (GluN1–1a/2BC1/2DC2; [18]): 0.9 | nH (GluN1–1a/2BC1/2DC2; [19]): 1.0 | nH (GluN1–1a/2BC1/2DC2; [20]): 0.9 | nH (GluN1–1a/2BC1/2DC2; [21]): 1.0 | nH (GluN1–1a/2B; [16]): 1.1 | nH (GluN1–1a/2B; [17]): 0.9 | nH (GluN1–1a/2B; [18]): 1.0 | nH (GluN1–1a/2B; [19]): 1.0 | nH (GluN1–1a/2B; [20]): 1.1 | nH (GluN1–1a/2B; [21]): 1.0
